ChEMBL document CHEMBL5236610, “A Comprehensive Overview of Small-Molecule Androgen Receptor Degraders: Recent Progress and Future Perspectives” (J Med Chem, 2022)

What was measured:
[1] = system: PC-3; experiment: Antitumor activity against human PC-3 cells xenografted in mouse assessed as reduction in tumor at 50 mg/kg in presence of bicalutamide relative to control; assay type: functional; design: scale not given: the % may be the effect or the level left
[2] = Downregulation of AR-Vs level in human LNCaP cells at 10 uM by Western blot analysis relative to control; assay type: functional
[3] = Downregulation of AR-Vs level in human CWR22Rv cells at 10 uM by Western blot analysis relative to control; assay type: functional
[4] = Downregulation of AR level in human CWR22Rv cells at 10 uM by Western blot analysis relative to control; assay type: functional
[5] = Antitumor activity in human CWR22rv cells xenografted NOD.CB17-PrkdcSCID/J mouse model assessed as inhibition of tumor growth at 10 mg/kg, ip relative to control; assay type: functional; design: scale not given: the % may be the effect or the level left
[6] = Downregulation of AR level in human LNCaP cells at 10 uM by Western blot analysis relative to control; assay type: functional
[7] = molecular target: Protein cereblon/Androgen receptor (Homo sapiens, UniProt P10275+Q96SW2); experiment: Protac activity at CRBN/Androgen receptor in human LNCaP cells assessed as Androgen receptor degradation incubated for 24 hrs; assay type: cell-based
[8] = molecular target: T1, von Hippel-Lindau disease tumor suppressor/Androgen receptor (Homo sapiens, UniProt P10275+P40337); experiment: PROTAC activity at VHL/AR-V7 in human 22Rv1 cells assessed as induction of AR-V7 degradation incubated for 24 hrs by immunoblot assay; assay type: cell-based
Target sequence in this assay (P40337 whole entry, looked up, change not shown, one chain of several): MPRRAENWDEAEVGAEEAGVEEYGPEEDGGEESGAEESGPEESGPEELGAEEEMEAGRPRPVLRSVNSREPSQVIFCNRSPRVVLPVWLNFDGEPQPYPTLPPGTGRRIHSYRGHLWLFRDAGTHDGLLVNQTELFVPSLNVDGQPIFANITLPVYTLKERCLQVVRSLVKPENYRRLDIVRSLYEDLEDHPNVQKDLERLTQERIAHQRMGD

[9] = molecular target: T1, von Hippel-Lindau disease tumor suppressor/Androgen receptor; experiment: PROTAC activity at VHL/full length AR in human 22Rv1 cells assessed as induction of AR degradation incubated for 24 hrs by immunoblot assay; assay type: cell-based
Target sequence in this assay (P40337 whole entry, one chain of several): as the sequence (P40337 whole entry, looked up, change not shown, one chain of several) above

[10] = system: LNCaP C4-2B; experiment: Antiproliferative activity against human C4-2B cells; assay type: functional, cell-based
[11] = system: CWR22R; experiment: Antitumor activity against human 22Rv1 cells xenografted in BALB/c nude mouse assessed as reduction in tumor volume at 10 mg/kg administered daily by vernier caliper method relative control; assay type: functional; design: scale not given: the % may be the effect or the level left
[12] = in vitro; conditions: mouse, liver microsomes
Description: Metabolic stability in mouse liver microsomes assessed as half life by LC-MS/MS analysis

[13] = system: VCaP; experiment: Antiproliferative activity against human VCaP cells incubated for 168 hrs by […] assay; assay type: functional, cell-based
[14] = system: LNCaP; experiment: Antiproliferative activity against human LNCap cells incubated for 168 hrs by […] assay; assay type: functional, cell-based
[15] = molecular target: T2, Androgen receptor (Homo sapiens, UniProt P10275); experiment: Inhibition of Androgen receptor (unknown origin)
T2 sequence (P10275 whole entry): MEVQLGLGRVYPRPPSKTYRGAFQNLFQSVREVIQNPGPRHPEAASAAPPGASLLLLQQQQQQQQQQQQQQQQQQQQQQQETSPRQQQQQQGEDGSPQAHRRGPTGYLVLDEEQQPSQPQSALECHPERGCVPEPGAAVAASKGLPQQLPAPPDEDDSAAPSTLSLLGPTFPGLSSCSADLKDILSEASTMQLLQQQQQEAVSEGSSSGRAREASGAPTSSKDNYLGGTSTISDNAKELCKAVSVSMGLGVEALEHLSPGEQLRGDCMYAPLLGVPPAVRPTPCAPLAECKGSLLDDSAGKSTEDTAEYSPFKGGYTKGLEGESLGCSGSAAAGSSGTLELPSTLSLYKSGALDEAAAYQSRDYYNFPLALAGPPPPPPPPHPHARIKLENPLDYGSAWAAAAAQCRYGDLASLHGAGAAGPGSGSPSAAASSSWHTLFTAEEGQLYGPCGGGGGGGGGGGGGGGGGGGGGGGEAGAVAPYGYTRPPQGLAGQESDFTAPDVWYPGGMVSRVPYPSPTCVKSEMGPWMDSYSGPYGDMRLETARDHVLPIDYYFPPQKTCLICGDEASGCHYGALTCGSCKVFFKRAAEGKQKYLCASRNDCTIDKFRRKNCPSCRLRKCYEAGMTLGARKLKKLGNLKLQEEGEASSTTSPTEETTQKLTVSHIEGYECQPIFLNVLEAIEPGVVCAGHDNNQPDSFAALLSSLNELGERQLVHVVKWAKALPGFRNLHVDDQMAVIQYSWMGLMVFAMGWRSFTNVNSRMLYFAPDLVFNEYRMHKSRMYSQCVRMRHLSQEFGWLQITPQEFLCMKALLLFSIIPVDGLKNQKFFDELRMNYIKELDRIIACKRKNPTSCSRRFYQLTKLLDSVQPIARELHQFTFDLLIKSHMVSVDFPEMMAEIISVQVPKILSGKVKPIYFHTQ

[16] = system: LNCaP; experiment: Antiproliferative activity against human LNCAP cells assessed as reduction in cell viability; assay type: functional, cell-based
[17] = system: CWR22R; experiment: Antiproliferative activity against human 22Rv1 cells assessed as reduction in cell viability; assay type: functional, cell-based
[18] = molecular target: T3, Steroid 17-alpha-hydroxylase/17,20 lyase (Homo sapiens, UniProt P05093); experiment: Inhibition of CYP17AI in human 22Rv1 cells; assay type: ADME, cell-based
T3 sequence (P05093 whole entry): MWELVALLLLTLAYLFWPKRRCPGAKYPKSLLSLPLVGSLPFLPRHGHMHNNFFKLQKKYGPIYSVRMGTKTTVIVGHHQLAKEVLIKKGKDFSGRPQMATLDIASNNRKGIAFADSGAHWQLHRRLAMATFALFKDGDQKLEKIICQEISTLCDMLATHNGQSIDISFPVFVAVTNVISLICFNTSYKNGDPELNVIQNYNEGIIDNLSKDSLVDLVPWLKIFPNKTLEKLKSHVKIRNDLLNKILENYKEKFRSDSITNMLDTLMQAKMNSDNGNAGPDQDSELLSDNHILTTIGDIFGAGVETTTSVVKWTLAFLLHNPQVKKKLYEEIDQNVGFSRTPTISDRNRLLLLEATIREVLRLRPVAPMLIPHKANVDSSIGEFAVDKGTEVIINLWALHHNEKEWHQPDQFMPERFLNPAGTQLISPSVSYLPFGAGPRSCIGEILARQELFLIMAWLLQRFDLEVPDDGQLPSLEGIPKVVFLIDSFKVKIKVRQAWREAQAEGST

[19] = molecular target: T3, Steroid 17-alpha-hydroxylase/17,20 lyase; experiment: Inhibition of CYP17AI in human LNCaP cells; assay type: ADME, cell-based
[20] = system: PC-3; experiment: Antiproliferative activity against human PC-3 cells incubated for 24 hrs by CCK-8 assay; assay type: functional, cell-based; conditions: PC-3, 24 h
[21] = system: CWR22R; experiment: Antiproliferative activity against human 22Rv1 cells incubated for 24 hrs by CCK-8 assay; assay type: functional, cell-based; conditions: 22Rv1, 24 h
[22] = system: DU-145; experiment: Antiproliferative activity against human DU-145 cells incubated for 24 hrs by CCK-8 assay; assay type: functional, cell-based; conditions: DU-145, 24 h
[23] = system: LNCaP C4-2; experiment: Antiproliferative activity against human C4-2 cells incubated for 24 hrs by CCK-8 assay; assay type: functional, cell-based; conditions: LNCaP C4-2, 24 h
[24] = system: CWR22R; experiment: Antitumor activity against human 22rv1 cells xenografted in mouse assessed as suppression of tumor growth at 100 mg/kg, po administered daily for 25 days relative to control; assay type: functional; conditions: time 25 day
[25] = system: LNCaP; experiment: Antitumor activity against human LNCap cells xenografted in NSG mouse assessed as tumor growth inhibition at 100 mg/kg, sc relative to control; assay type: functional; conditions: read-out: TGI
[26] = system: LNCaP; experiment: Antitumor activity against human LNCaP cells xenografted in nude mouse assessed as decrease in tumor weight at 40 mg/kg via oral gavage for six days weekly for 70 days relative to control; assay type: functional; design: scale not given: the % may be the effect or the level left; conditions: time 70 day
[27] = molecular target: T2, Androgen receptor; experiment: Inhibition of AR LBD in human LNCaP cells; assay type: cell-based
[28] = molecular target: T2, Androgen receptor; experiment: Induction of degradation of AR LBD in human LNCaP cells; assay type: cell-based
[29] = system: CWR22R; experiment: Antiproliferative activity against human 22Rv1 cells; assay type: functional, cell-based
[30] = system: LNCaP; experiment: Antiproliferative activity against human LNCap cells; assay type: functional, cell-based
[31] = system: PC-3; experiment: Antiproliferative activity against human PC-3 cells; assay type: functional, cell-based
[32] = system: LNCaP C4-2B; experiment: Antiproliferative activity against human LNCaP C4-2B cells; assay type: functional, cell-based

Chain of Protein cereblon/Androgen receptor (Q96SW2 whole entry, one chain of several): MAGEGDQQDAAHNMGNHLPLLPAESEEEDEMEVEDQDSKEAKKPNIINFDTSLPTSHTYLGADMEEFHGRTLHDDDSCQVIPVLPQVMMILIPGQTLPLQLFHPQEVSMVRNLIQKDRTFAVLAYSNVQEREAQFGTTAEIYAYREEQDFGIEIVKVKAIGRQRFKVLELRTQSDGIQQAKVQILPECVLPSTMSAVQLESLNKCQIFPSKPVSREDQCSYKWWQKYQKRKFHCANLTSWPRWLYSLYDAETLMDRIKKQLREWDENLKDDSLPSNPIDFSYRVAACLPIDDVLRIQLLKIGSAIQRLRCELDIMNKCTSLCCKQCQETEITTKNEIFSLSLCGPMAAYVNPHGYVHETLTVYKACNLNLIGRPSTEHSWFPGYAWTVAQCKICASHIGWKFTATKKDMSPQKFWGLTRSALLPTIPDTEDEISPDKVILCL

## C[C@H]1[C@H](OC(=O)CCC(=O)O)O[C@@H]2O[C@@]3(C)CC[C@H]4[C@H](C)CC[C@@H]1[C@@]24OO3 [ARTESUNATE]
[1]
  Activity: >95%

## CCOc1ccc2c(c1OC(C)C)CCN(c1ccc(C(=O)Nc3cccc(C)n3)cn1)C2
[2]
  Activity: >90%
[3]
  Activity: >90%
[4]
  Activity: >90%
[5]
  Activity: 65%
[6]
  Activity: >90%

## CC(O)(COc1ccc(OCCOCCOc2cccc3c2C(=O)N(C2CCC(=O)NC2=O)C3=O)cc1)C(=O)Nc1ccc(C#N)c(I)c1 (configuration not stated)
[7]
  EC50: 5.21 µM

## Cc1ncsc1-c1ccc([C@H](C)NC(=O)[C@@H]2C[C@@H](O)CN2C(=O)[C@@H](NC(=O)CCCCNC(=O)COc2c(-c3csc(N4CCOCC4)n3)ccc(F)c2F)C(C)(C)C)cc1
[8]
  EC50: 0.37 µM
[9]
  EC50: 2 µM

## COc1ccc(C(=O)n2c(C)cc3cc(Cl)ccc32)cc1
[10]
  IC50: 1.09 µM

## COc1ccc(-n2nc3ccc(NC(=O)CO[N+](=O)[O-])cc3n2)cc1
[11]
  Activity: 82%

## CN(C[C@](C)(O)C(=O)Nc1ccc(C#N)c(C(F)(F)F)c1)c1ccc(C#N)c(-c2ccccc2)c1
[12]
  half-life: 1 min

## CC1(C)C(=O)N(c2ccc(C#N)c(C(F)(F)F)c2)C(=S)N1CCCCOc1cccc2c1C(=O)N(C1CCC(=O)NC1=O)C2=O (configuration not stated)
[13]
  IC50: 0.127 µM
[14]
  IC50: 3.07 µM

## Clc1ccc(-c2cnc3n2CCC3)cc1
[15]
  IC50: 4.3 µM

## CC1(C)CC(NC(=O)[C@H](Cc2ccc(OCc3c(Cl)cccc3Cl)cc2)NC(=O)/C(=C\c2ccccc2)c2ccccc2)CC(C)(C)N1
[16]
  IC50: 3 µM
[17]
  IC50: 2.6 µM

## C[C@]12CC[C@H](O)CC1=CC[C@@H]1[C@@H]2CC[C@]2(C)C(n3cnc4ccccc43)=CC[C@@H]12 [GALETERONE]
[18]
  IC50: 0.0122 µM
[19]
  IC50: 3.55 µM

## COc1ccc(-c2cc(=O)c3c(OC)c(OC)c(OC)c(OC)c3o2)cc1OC [NOBILETIN]
[20]
  IC50: 123 µM
[21]
  IC50: 36.5 µM
[22]
  IC50: 144 µM
[23]
  IC50: 30.3 µM

## CC(C)c1cc2c(c(O)c1O)[C@@]1(C(=O)O)CCCC(C)(C)[C@@H]1CC2 [CARNOSIC ACID]
[24]
  Activity: 53%

## C[C@](O)(Cn1ccc2cc(F)ccc21)C(=O)Nc1ccc(C#N)c(C(F)(F)F)c1
[25]
  inhibition in vivo at 100 mg/kg: 65%

## CC(C)=CCC[C@](C)(O)[C@H]1CC[C@]2(C)[C@@H]1[C@H](O)C[C@@H]1[C@@]3(C)CC[C@H](O)C(C)(C)[C@@H]3CC[C@]12C
[26]
  Activity: 32.6%

## CC1(C)C(=O)N(c2ccc(C#N)c(C(F)(F)F)c2)C(=S)N1CCCC(=O)NCCOCCOC(=O)CC12CC3CC(CC(C3)C1)C2
[27]
  IC50: 0.156 µM
[28]
  EC50: 1 µM

## COc1ccc2cc3[n+](cc2c1OC)CCc1cc2c(cc1-3)OCO2 [BERBERINE]
[29]
  IC50: 12.7 µM
[30]
  IC50: 3.4 µM
[31]
  IC50: 21.5 µM
[32]
  IC50: 11.2 µM
